In patent publication US7960397B2, “6,9-disubstituted purine derivatives and their use as cosmetics and cosmetic compositions” (Institute of Experimental Botany, Academy of Sciences of …, priority 2007, dated 2011):

Experiments:
[1] = system: cytokinin-dependent tobacco callus Nicotiana tabacum L. cv. Wisconsin 38; assay: Cytokinin activity in tobacco callus bioassay; type: cell-based; details: for concentration with highest activity: growth of tobacco callus, four weeks of cultivation, tested 10^−8 M to 10^−4 M; for Activity (%) [10^−5 mol · l^−1 BAP = 100%]: increase of fresh callus weight at the concentration with highest activity, 10^−5 M BAP = 100%
Description: Estimation of cytokinin biological activity of novel compounds in callus bioassay. Cytokinin-dependent tobacco callus Nicotiana tabacum L. cv. […] Subcultivation was carried out every three weeks. Fourteen days before the bioassay, the callus tissue was transferred to the media without the compound tested. The biological activity was determined from the increase of the fresh callus weight after four weeks of cultivation. Five replicates were prepared for each concentration of the compound tested and the entire test was repeated twice. […] The relative activity of the compound at this concentration was calculated (Table 8). […] The compounds to be tested were dissolved in dimethylsulfoxide (DMSO) and the solution brought up to 10^−3 M with distilled water. This stock solution was further diluted with the respective media used for the biotest to a concentration ranging from 10^−8 M to 10^−4 M.

[2] = system: Amaranthus caudatus cotyledon/hypocotyl explants; assay: Amaranthus bioassay (betacyanin content); set-up: species or system Amaranthus caudatus var. atropurpurea; details: for concentration with highest activity: betacyanin content after 48 h incubation, tested 10^−8 M to 10^−4 M; for Activity (%) [10^−5 mol · l^−1 BAP = 100%]: betacyanin content at the concentration with highest activity, 10^−5 M BAP = 100%
Description: Testing of novel compounds for typical cytokinin activity in Amaranthus bioassay. A standard Amaranthus bioassay was performed with several modifications. The seeds of Amaranthus caudatus var. atropurpurea were surface-sterilized in 10% (w/v) N-chlorobenzenesulfonamide for 10 min and washed 5 times with deionized water. They were placed in 14 cm Petri dishes containing paper tissues saturated with deionized water. After 72 h of cultivation at 25° C. in darkness, the roots of the seedlings were cut off. The explants, consisting of two cotyledons and hypocotyls, were placed in 5 cm Petri dishes onto two layers of filter paper soaked with 1 ml of the incubation medium containing 10 mmol of NA2HPO4—KH2PO4, pH 6.8, 5 mmol of tyrosine and the compound to be tested. There were 20 explants per dish. The procedure was carried out under a green safe light in a darkroom. […] The concentration of betacyanin was determined from the absorbencies at 537 nm and 620 nm as follows: DA=A537 nm−A620 nm. […] Relative activity of the compound at this concentration was calculated. The activity obtained for 10^−5 M 6-benzylaminopurine (BAP) was defined as 100%.
(§1) The compounds to be tested were dissolved in dimethylsulfoxide (DMSO) and the solution brought up to 10^−3 M with distilled water.

excised wheat leaf tips = assay: Antisenescence test, retention of chlorophyll in excised wheat leaf tips; set-up: species or system Triticum aestivum cv. Hereward; details: for activity (%) [10^−4 mol · l^−1 BAP = 100%]: retention of chlorophyll in excised wheat leaf tips at the concentration with highest activity, 10 replicate determinations; for concentration with highest activity: retention of chlorophyll in excised wheat leaf tips, tested range 10^−8 M to 10^−4 M, 96 h in the dark at 25° C.
Description: Testing of antisenescence properties of novel cytokinin compounds on wheat leaf segments. Seeds of winter wheat, Triticum aestivum cv. Hereward, were washed under running water for 24 hours and then sown on vermiculite soaked with the Knop's solution. They were placed in the grow chamber at 25° C. with a 16 h-8 h light period at 50 mmol.m^−2.s^−1. After 7 days, the first leaf was fully developed and the second leaf had started to grow. A 35 mm long tip section of the first leaf, was removed from each of 5 seedlings and trimmed slightly to a combined weight of 100 mg. The basal ends of the five leaf tips were placed in the wells of a microtiter polystyrene plate containing […] of the solution of the tested compound each. The entire plate was inserted into a plastic box lined with paper tissues soaked with distilled water to prevent leaf sections from drying out. After 96 h incubation in the dark at 25° C., the leaves were removed and chlorophyll was extracted by heating at 80° C. for 10 min in 5 ml of 80% ethanol (v/v). The sample volume was then restored to 5 ml by the addition of 80% ethanol (v/v). The absorbance of the extract was recorded at 665 nm. In addition, chlorophyll extracts from fresh leaves and leaf tips incubated in deionized water were measured. […] Relative activity of the compound at this concentration was calculated (Table 7). The activity obtained for 10^−4 M 6-benzylaminopurine (BAP) was defined as 100%. The values shown are means of five replicates and the whole experiment was repeated twice.
as §1

[3] = system: human diploid fibroblasts (HCA cells, HCA20, HCA40, HCA60); assay: Senescent cells (β-galactosidase staining) in culture of human fibroblasts; type: cell-based
Description: In this example, human diploid fibroblasts (HCA cells of various passage levels: passage 20—designated HCA20; passage 40—designated HCA40; passage 60—designated HCA60) were stained for β-galactosidase activity. The medium used for the cell cultivation was removed, the cells were washed twice in […], and fixed in 2-3 ml of fixing solution comprised of a 2% formaldehyde and 0.2% glutaraldehyde in PBS. The cells were incubated at room temperature for 5 minutes, and then washed twice with PBS. The cells were subsequently incubated at 37° C.

| SMILES | concentration with highest activity [1] | Activity (%) [10^−5 mol · l^−1 BAP = 100%] [1] [%] | concentration with highest activity [2] | Activity (%) [10^−5 mol · l^−1 BAP = 100%] [2] [%] | activity (%) [10^−4 mol · l^−1 BAP = 100%] (excised wheat leaf tips) [%] | concentration with highest activity (excised wheat leaf tips) | SENESCENT CELLS (%) HCA20 ([3]; human fibroblasts passage 20 (HCA20)) [%] | SENESCENT CELLS (%) HCA40 ([3]; human fibroblasts passage 40 (HCA40)) [%] | SENESCENT CELLS (%) HCA60 ([3]; human fibroblasts passage 60 (HCA60)) [%] |
| --- | --- | --- | --- | --- | --- | --- | --- | --- | --- |
| Cc1cc(CNc2ncnc3c2ncn3C2CCCO2)ccc1O (stereo not shown) [4-hydroxy-3-methylbenzylamino / tetrahydrofuran-2-yl] | 10^−5 mol · l^−1 | 12 | 10^−4 mol · l^−1 | 2 | 1.4 | 10^−4 mol · l^−1 | – | – | – |
| COc1cc(CNc2ncnc3c2ncn3C2CCCO2)cc(OC)c1O (stereo not shown) | 10^−5 mol · l^−1 | 27 | 10^−4 mol · l^−1 | 2 | 36 | 10^−4 mol · l^−1 | – | – | – |
| COc1ccc(CNc2ncnc3c2ncn3C2CCCO2)cc1O (stereo not shown) | 10^−6 mol · l^−1 | 47 | 10^−4 mol · l^−1 | 32 | 35 | 10^−4 mol · l^−1 | – | – | – |
| Oc1ccc(CNc2ncnc3c2ncn3C2CCCCO2)c(O)c1 (stereo not shown) | 10^−5 mol · l^−1 | 5 | – | – | – | – | – | – | – |
| CC(CO)CCNc1ncnc2[nH]cnc12 (stereo not shown) [4-hydroxy-3-methylbutylamino / H, reference compound] | 10^−5 mol · l^−1 | 83.2 | 10^−4 mol · l^−1 | 75 | 89 | 10^−4 mol · l^−1 | – | – | – |
| Oc1ccc(Nc2ncnc3c2ncn3C2CCCCO2)cc1 (stereo not shown) [4-hydroxyanilino / tetrahydropyran-2-yl, 6-(4-hydroxyanilino)-9-(tetrahydropyran-2-yl)-purine] | 10^−5 mol · l^−1 | 22 | 10^−4 mol · l^−1 | 32 | – | – | 4 | 6 | 16 |
| COc1cccc(CNc2ncnc3[nH]cnc23)c1O [2-hydroxy-3-methoxybenzylamino / H, reference compound] | – | – | 10^−4 mol · l^−1 | 19 | 34 | 10^−4 mol · l^−1 | – | – | – |
| CCOC(C)n1cnc2c(NCCC(C)CO)ncnc21 (stereo not shown) | 10^−4 mol · l^−1 | 95 | 10^−4 mol · l^−1 | 85 | 94 | 10^−4 mol · l^−1 | – | – | – |
| Oc1cc(O)cc(CNc2ncnc3c2ncn3C2CCCCO2)c1 (stereo not shown) | 10^−6 mol · l^−1 | 45 | 10^−5 mol · l^−1 | 53 | 145 | 10^−4 mol · l^−1 | – | – | – |
| Cc1cc(Nc2ncnc3c2ncn3C2CCCO2)ccc1O (stereo not shown) | 10^−5 mol · l^−1 | 7 | 10^−4 mol · l^−1 | 6 | 4 | 10^−4 mol · l^−1 | – | – | – |
| CC(CO)CCNc1ncnc2c1ncn2CCCCCl (stereo not shown) | 10^−4 mol · l^−1 | 84 | 10^−4 mol · l^−1 | 81 | 89 | 10^−4 mol · l^−1 | – | – | – |
| COc1cc(O)cc(OC)c1CNc1ncnc2c1ncn2C1CCCO1 (stereo not shown) | 10^−5 mol · l^−1 | 31 | 10^−4 mol · l^−1 | 7 | 14 | 10^−4 mol · l^−1 | – | – | – |
| Oc1ccc(Nc2ncnc3c2ncn3C2CCCO2)cc1 (stereo not shown) [4-hydroxyanilino / tetrahydrofuran-2-yl] | 10^−5 mol · l^−1 | 10 | 10^−4 mol · l^−1 | 22 | 28 | 10^−4 mol · l^−1 | – | – | – |
| Cc1cc(CNc2ncnc3c2ncn3C2CCCO2)ccc1O (stereo not shown) [4-hydroxy-5-methylbenzylamino / tetrahydrofuran-2-yl] | 10^−5 mol · l^−1 | 2 | 10^−4 mol · l^−1 | 22 | 17 | 10^−4 mol · l^−1 | – | – | – |
| Oc1ccccc1CNc1ncnc2c1ncn2CCCCCl [2-hydroxybenzylamino / 4-chlorobutyl] | – | – | 10^−4 mol · l^−1 | 47.5 | 47.5 | 10^−4 mol · l^−1 | – | – | – |
| COc1cccc(CNc2ncnc3c2ncn3CCCCCl)c1O | – | – | 10^−4 mol · l^−1 | 53 | – | – | – | – | – |
| Oc1ccc(O)c(CNc2ncnc3c2ncn3C2CCCCO2)c1 (stereo not shown) | 10^−5 mol · l^−1 | 20 | 10^−4 mol · l^−1 | 35.1 | 15 | 10^−4 mol · l^−1 | – | – | – |
| Oc1cc(O)cc(CNc2ncnc3[nH]cnc23)c1 [3,5-dihydroxybenzylamino / H, reference compound] | 10^−6 mol · l^−1 | 39 | 10^−5 mol · l^−1 | 53 | 134 | 10^−4 mol · l^−1 | – | – | – |
| Oc1cccc(CNc2ncnc3c2ncn3CCCCCl)c1 [3-hydroxybenzylamino / 4-chlorobutyl] | 10^−4 mol · l^−1 | 111.6 | 10^−4 mol · l^−1 | 102.5 | 102.5 | 10^−4 mol · l^−1 | – | – | – |
| CCOC(C)n1cnc2c(NCc3cccc(O)c3)ncnc21 (stereo not shown) [3-hydroxybenzylamino / 1-ethoxyethyl] | 10^−4 mol · l^−1 | 109.4 | 10^−4 mol · l^−1 | 108.2 | 108.2 | 10^−4 mol · l^−1 | – | – | – |
